US7223793B2, “Phenolic acid derivatives and composition for preventing or treating blood lipid level-related diseases comprising the same” (Bionutrigen Co., Ltd., priority 2001, dated 2007)
Marks after values point to notes of the source that are not given here.

Tests used:
[1] = tested on: New Zealand White rabbits; assay: Chemical analysis of blood of cholesterol-fed rabbits (Experimental Example 7, Step 3); conditions: 8 weeks
Description: Healthy male New Zealand White rabbits, each weighing about 2.0 to 2.3 kg, were supplied from Yeonam Horticulture and Animal Husbandry College (Korea) and raised under a breeding environment of temperature 20±2° C., relative humidity 55±10%, and photoperiod 12L/12D. […] The rabbits were fed for 8 weeks while being allowed free access to the diets and water.

[2] = tested on: New Zealand White rabbits; assay: Histological observation of the organs of treated rabbits (Experimental Example 7, Step 5); type: in vivo, rabbit; conditions: 8 weeks
Description: Tissues of the lung, myocardium, kidney and muscle taken from the rabbits treated with the phenolic acid derivatives (BN30063, BN30064, BN30067) were visually examined for pathological changes using a microscope.

Sprague-Dawley rats = assay: Effect on hyperlipemia in rats fed high-cholesterol diet (Experimental Example 6); type: in vivo, rat; conditions: rats on 1% cholesterol diet, 6 weeks; for Atherogenic index (AI): (total cholesterol − HDL cholesterol)/HDL cholesterol; for HDL-cholesterol / Neutral fat / Total cholesterol: 0.02% lovastatin, 0.039% BN30063, 0.040% BN30064, 0.041% BN30067 in diet; for HDL-cholesterol / Neutral fat / Total cholesterol / HDL-cholesterol/total cholesterol: average
Description: 50 of 4-week-old male white Sprague-Dawley rats (Bio Genomics Inc., Korea), each weighing about 90 to 110 g, were divided into five groups by a randomized block design. The rats of the five groups were fed with five different high-cholesterol diets, i.e., AIN-76 laboratory animal diets (TEKLAD premier Co., Madison, Wis., U.S.A.) containing 1% cholesterol (Control group), 1% cholesterol plus 0.02% lovastatin (Choongwae Pharma. Corp., Korea), 1% cholesterol plus 0.039% BN30063, 1% cholesterol plus 0.040% BN30064, and 1% cholesterol plus 0.041% BN30067, respectively, as shown in Table VII.
The animals were allowed free access to the specified diets and water for 6 weeks and the ingestion amounts were recorded daily. The rats were weighed every 7 days, and then the record was analyzed.
Blood samples were taken from vena hypogastrica of the rats of the five dietary groups raised for six weeks in Step 1. The blood was allowed to stand for 2 hours and centrifuged at 3,000 rpm for 15 minutes and the supernatant containing serum was separated and stored in a deep freezer before use. The total cholesterol level was measured using a diagnosis kit purchased from Sigma, Cat. No.: C0534, applying the method of Allain et al. (Allain et al., Clin. Chem., 20, 470-475 (1974)). The HDL fraction was separated using a kit purchased from Sigma, Cat. No.: 352-1 applying the heparin-manganese precipitation method (Waenic R. G. and Albers J. J., J Lipid Res., 19, 65-76 (1978)) and the HDL-cholesterol level was measured using a kit purchased from Sigma, Cat. No.: C9908. The neutral fat level was measured using a kit purchased from Sigma, Cat. No.: 336-10) applying the lipase-glycerol phosphate oxidase method (McGowan, M. W. et al., Clin. Chem., 29, 538-542(1983)).

[3] = tested on: New Zealand White rabbits; assay: Morphological observation of liver tissue of cholesterol-fed rabbits (Experimental Example 7, Step 4)
Description: Healthy male New Zealand White rabbits, each weighing about 2.0 to 2.3 kg, were supplied from Yeonam Horticulture and Animal Husbandry College (Korea) and raised under a breeding environment of temperature 20±2° C., relative humidity 55±10%, and photoperiod 12L/12D. The rabbits were divided into 5 groups, which were fed with 5 different diets, i.e., the control group fed with RC4 diet (Oriental Yeast Co., Japan) comprising moisture (7.6%), crude protein (22.8%), crude fat (2.8%), crude ash (8.8%), crude cellulose (14.4%) and soluble nitrogen-free substances (43.7%) plus cholesterol (1%) and four treatment groups further fed with lovastatin or BN30063, BN30064, BN30067 in addition to the feed of the control group. The rabbits were fed for 8 weeks while being allowed free access to the diets and water.
Proportions of cells in the liver acinus containing excessive fat or modified to have irregular arrangement due to a high cholesterol diet were classified into four grades, from 1+ to 4+.

[4] = tested on: New Zealand White rabbits; assay: Fatty streak in the main artery of cholesterol-fed rabbits (Experimental Example 7, Step 2); type: in vivo, rabbit; conditions: 8 weeks; for Proportion of stained region (fatty streak region) per unit area of the artery: 1% cholesterol + RC4 diet, lovastatin 0.003 wt %, BN compounds 0.025 wt %, average ± standard deviation; for Proportion of the fatty streak region compared to the control group: 1% cholesterol diet
Description: The rabbits raised in Step 1 were sacrificed and their chests were incised. The incision was performed downward to the diaphragm along the aortic arch and the fat surrounding the main artery was removed. The main artery was incised in the middle along the longitudinal axis from the second aortic intercostal artery anastomoses to the seventh aortic intercostal artery anastomoses and fixed with 10% neutral buffered formalin for 24 hours. Then, the incised main artery was pinned to a dish for staining of fatty streaks according to the method of Esper, E., et al. {J. Lab. Clin. Med., 121, 103-110 (1993)}. The artery was washed with propylene glycol three times for 2 minutes respectively. The artery was stained for 30 minutes with a saturated solution of Oil Red O (ORO, Sigma Co.) dissolved in propylene glycol. Thereafter, the artery was washed with 85% propylene glycol twice for 3 minutes respectively to remove the remaining staining solution and, then the artery was washed with physiological saline once. The artery was photographed and the photograph was traced. The proportion (%) of stained region (fatty streak region) per unit area of the artery was determined with an image analyzer (LEICA, Q-600, Germany). The significant differences between the test groups were tested by student t-test using Microsoft excel (version 7.0) program

[5] = 1% cholesterol diet, lovastatin 1 mg/kg, BN compounds 0.025%, average ± standard deviation

| SMILES | HDL [1, 5] [mg/dL] | TC [1, 5] | Pathological changes in lung, myocardium, kidney and muscle (microscope) [2] | Atherogenic index (AI) (Sprague-Dawley rats) | Increase of HDL-cholesterol to total cholesterol as compared to the control group (Sprague-Dawley rats) [%] | Reduction of atherogenic index as compared to the control group (Sprague-Dawley rats) [%] | Reduction of neutral fat level as compared to the control group (Sprague-Dawley rats) [%] | Reduction of total plasma cholesterol level as compared to the control group (Sprague-Dawley rats) [%] | HDL-cholesterol (Sprague-Dawley rats) [mg/dL] | Neutral fat (Sprague-Dawley rats) [mg/dL] | Total cholesterol (Sprague-Dawley rats) [mg/dL] | HDL-cholesterol/total cholesterol (Sprague-Dawley rats) [%] | Grade of abnormal fat content in the liver acinus ([3]; rabbit, in vivo) | Liver tissue morphology ([3]; rabbit, in vivo) | Proportion of stained region (fatty streak region) per unit area of the artery [4] | Proportion of the fatty streak region compared to the control group [4] | also measured |
| --- | --- | --- | --- | --- | --- | --- | --- | --- | --- | --- | --- | --- | --- | --- | --- | --- | --- |
| COC(=O)C(CO)NC(=O)CCc1ccc(O)c(O)c1 (centres unmarked) [BN30063, 2-[3-(3,4-dihydroxyphenyl)propionylamino]-3-hydroxy propionic acid methyl ester] | 81 ± 16 | 1643 ± 194 mg/dL | no pathogenic abnormality was found | 1.39 | 78.28 | 57.75 | 49.41 | 29.8 | 28.97 | 52.31 | 68.06 | 43.25 | 3.71 ± 0.35 | not observed any abnormality | 44.8 ± 10.5% | significantly lower |  |
| CC[C@H](C)C(=O)O[C@H]1C[C@@H](C)C=C2C=C[C@H](C)[C@H](CC[C@@H]3C[C@@H](O)CC(=O)O3)[C@H]21 [Lovastatin, reference compound] | 70 ± 6 | 1739 ± 86 mg/dL |  | 2.58 | 20 | 21.58 | 18.92 | 10 | 24.83 | 83.85 | 86.51 | 29.13 |  |  | 30.3 ± 12^b % | significantly lower | GOT [1, 5]: 105 ± 47^b IU/L; GPT [1, 5]: 47 ± 18 IU/L; GOT and GPT compared among the test groups ([1]; associated with hepatotoxicosis): highest GOT and GPT values among the test groups; Grade of abnormal fat content in the liver acinus ([3]; 1+ (0–25%), 2+ (26–50%), 3+ (51–75), 4+ (76–100%), rabbits, 1% cholesterol diet, 8 weeks, average ± standard deviation): 3.83 ± 0.5^b; Liver tissue morphology ([3]; rabbits, 1% cholesterol diet, 8 weeks): a grade higher than that of the control group |
| CC(C)CC(NC(=O)CCc1ccc(O)c(O)c1)C(=O)O (centres unmarked) [BN30064, 2-[3-(3,4-dihydroxyphenyl)propionylamino]-4-methyl pentanoic acid] | 85 ± 15 | 1596 ± 191^b mg/dl | no pathogenic abnormality was found | 1.61 | 68.10 | 51.06 | 29.35 | 21.92 | 28.49 | 73.07 | 75.71 | 40.78 | 3.70 ± 0.10 | not observed any abnormality | 31.2 ± 11.6^b % | significantly lower | HDL compared to the control group [1]: significantly increased value; Total cholesterol compared to the control group [1]: significantly low |
| O=C(O)CC(NC(=O)CCc1ccc(O)c(O)c1)C(=O)O (centres unmarked) [BN30067, 2-[3-(3,4-dihydroxyphenyl)propionylamino]-succinic acid] | 81 ± 14 | 1710 ± 251 mg/dL | no pathogenic abnormality was found | 1.96 | 42.70 | 40.43 | 63.87 | 27.82 | 23.81 | 37.37 | 69.99 | 34.62 | 3.82 ± 0.8 | not observed any abnormality | 43.0 ± 13.9^b % | significantly lower |  |
